Data set [1] is described as follows: Solubility determination in PBS pH 7.4. The data set is classed as physicochemical. Conditions: aqueous buffer, kinetic from dmso stock; PBS pH 7.4, 2 hours, 25° C.; the listed prodrug. The protocol: Stock solutions (10 mM DMSO, 30 μL) of each sample were placed into 96-well plate, along with 970 μL of PBS pH 7.4 were added into each vial of the cap-less solubility sample plate. The assay was performed in duplicate. A stir stick was added to each well and sealed using a molded PTFE/Silicone plug. Then the Solubility Sample plate was transferred to an Eppendorf Thermomixer Comfort plate shaker and shaken at 1100 RPM for 2 hours at 25° C. After completion the plugs and stir sticks were removed and the samples were transferred into a filter plate and filtered using a vacuum manifold. 5 μL aliquots of filtrate were taken and diluted with 5 μL DMSO and 490 μL of a 1:1 v/v mixture of H2O and acetonitrile. 200 μL of diluent was transferred to a new 96-well plate for LC-MS/MS analysis. The solution was analyzed and quantified against a standard of known concentration in DMSO using LC coupled with Mass spectral peak for identification and quantitation.

The target in data set [2] is T1, CDK1-NanoLuc fusion with CCNB1 in 293T or 293 cells (Homo sapiens, UniProt P06493).
T1 construct: host or cells: 293T (ATCC CRL-3216) or 293 (ATCC CRL-1573)
Put plainly: NanoBRET Target Engagement (TE) Intracellular Kinase Assay, CDK1/CCNB1. The data set is classed as cell-based. The following applies: NanoBRET TE intracellular kinase assay, 2-hour incubation, read-out: NanoBRET-CDK1/B1 IC50. A digest of the protocol: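 293T or 293 cells co-transfected with CDK1-NanoLuc and CCNB1 vectors, incubated 24 h, then exposed to NanoBRET Tracer K-10 plus compound for 2 h at 37° C. BRET ratio (610/450 nm) normalized to DMSO; IC50 from four-parameter logistic fit.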
In general terms: BRET reads energy transfer from a luciferase to a nearby fluorophore.

The target of data set [3] is T2, CDK2-NanoLuc fusion with CCNE1 in 293T or 293 cells (Homo sapiens, UniProt P24941).
T2 construct: host or cells: 293T (ATCC CRL-3216) or 293 (ATCC CRL-1573)
Nature of the data set: NanoBRET Target Engagement (TE) Intracellular Kinase Assay, CDK2/CCNE1. The data set is classed as cell-based. Conditions: 2-hour incubation.

The target of data set [4] is T3, CDK4-NanoLuc fusion with CCND1 in 293T or 293 cells (Homo sapiens, UniProt P11802).
T3 construct: host or cells: 293T (ATCC CRL-3216) or 293 (ATCC CRL-1573)
Nature of the data set: NanoBRET Target Engagement (TE) Intracellular Kinase Assay, CDK4/CCND1. The following applies: NanoBRET TE intracellular kinase assay, 2-hour incubation, read-out: NanoBRET-CDK4/D1 IC50. The format is cell-based.

The subject of data set [5] is Phospho-Rb Ser807/811 in OVCAR3 cells. Put plainly: OVCAR3 Phospho-Rb Ser807/811 HTRF assay. The data set is classed as cell-based. Conditions: Homo sapiens, OVCAR-3, 1 h, read-out: pRb-OVCAR3 IC50. On the procedure:
Cells were trypsinized and resuspended in 1 mM hydroxyurea (Sigma; H8627), 90% RPMI and 10% fetal bovine serum. […] Dose response curve normalized to DMSO control was plotted using four-parameter logistic model for IC50 calculation.
Background: Time-resolved FRET reads energy transfer from a long-lived donor to a nearby acceptor.

The target in data set [6] is pCDK2-CCNE1 proteins (Homo sapiens, UniProt P24941). Put plainly: Identification of covalent binding by intact mass spectrometry, with and without competitor PF-06873600. The following applies: for Observed mass value of the covalent complex between compound and CDK2 protein: intact mass spectrometry after borohydride reduction, unmodified CDK2 34096-34097 Da; for Covalent complex formation with CDK2 protein (intact mass spectra after sodium borohydride reduction): 1 hour at room temperature or 37° C., no competitor. On the procedure: pCDK2-CCNE1 proteins (1 μM) were treated with a compound (1.5 μM) from Table 4 for 1 hour at room temperature or 37° C., with and without competitor molecule PF-06873600 (20 μM final concentration) as a specificity control. As used herein, the competitor molecule is
As used herein, the competitor molecule is 6-(difluoromethyl)-8-((1R,2R)-2-hydroxy-2-methylcyclopentyl)-2-((1-(methylsulfonyl)piperidin-4-yl)amino)pyrido[2,3-d]pyrimidin-7(8H)-one (PF-06873600). Reversible imines were captured by reductive amination with the addition of 5 mM sodium borohydride at room temperature for 5 min. Reduction reactions were quenched by diluting the sample in equal volume of 1% trifluoroacetic acid (v/v) in acetonitrile, then analyzed by LC-MS. Deconvoluted monoisotopic intensities of unmodified and compound-modified mass peaks were compared.
FIGS. 1A to 1P provide intact mass spectra for pCDK2-CCNE1 proteins after incubation with compounds of the present disclosure and subsequent sodium borohydride reduction. […] Further, FIGS. 1A to 1P each provide intact mass spectra following the incubation of pCDK2-CCNE1 proteins with a compound of the present disclosure both in the absence of a competitor molecule (i.e., PF-06873600, a molecule known to bind to and inhibit the function of CDK2); and in the presence of a significant stoichiometric excess of a competitor molecule PF-06873600.
FIGS. 2A to 2N provide intact mass spectra for pCDK2-CCNE1 proteins after incubation with compounds of the present disclosure and subsequent sodium borohydride reduction.

Setting [7] is: NanoBRET TE intracellular kinase assay, read-out: NanoBRET-CDK2/E1 IC50.
Where [8] appears, read: OVCAR3 cells, Phospho-Rb Ser807/811 HTRF, 1 hour incubation.
Where [9] appears, read: pCDK2-CCNE1 1 μM, compound 1.5 μM.

Each structure is given as a SMILES string. Values after ≈ are worked out from the molar mass of the structure shown. “Also recorded” adds a separate entry of the source. Like-named read-outs stand apart in the source and are kept apart here.

T1 sequence (P06493 whole entry, the tested form may be a part): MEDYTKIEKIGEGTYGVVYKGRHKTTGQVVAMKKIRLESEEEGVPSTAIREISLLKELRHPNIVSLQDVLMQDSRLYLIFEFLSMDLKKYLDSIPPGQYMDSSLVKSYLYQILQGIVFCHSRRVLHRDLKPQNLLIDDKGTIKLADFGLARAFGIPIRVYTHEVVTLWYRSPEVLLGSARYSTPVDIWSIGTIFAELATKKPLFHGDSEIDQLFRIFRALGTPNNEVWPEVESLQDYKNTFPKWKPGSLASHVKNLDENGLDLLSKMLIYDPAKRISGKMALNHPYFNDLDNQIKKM
T1 sequence (P14635 whole entry partner, the tested form may be a part): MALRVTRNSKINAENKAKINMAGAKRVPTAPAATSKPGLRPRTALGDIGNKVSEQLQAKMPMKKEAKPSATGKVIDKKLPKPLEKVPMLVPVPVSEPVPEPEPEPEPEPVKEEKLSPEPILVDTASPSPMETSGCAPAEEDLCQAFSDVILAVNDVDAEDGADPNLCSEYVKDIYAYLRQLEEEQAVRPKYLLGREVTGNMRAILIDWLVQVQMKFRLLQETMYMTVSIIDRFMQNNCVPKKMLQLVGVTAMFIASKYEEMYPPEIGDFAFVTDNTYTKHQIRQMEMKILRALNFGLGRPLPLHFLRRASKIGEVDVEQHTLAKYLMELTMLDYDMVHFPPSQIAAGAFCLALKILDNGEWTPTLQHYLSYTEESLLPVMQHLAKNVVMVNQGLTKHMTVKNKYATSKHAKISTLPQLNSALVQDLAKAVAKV
T3 sequence (P11802 whole entry, the tested form may be a part): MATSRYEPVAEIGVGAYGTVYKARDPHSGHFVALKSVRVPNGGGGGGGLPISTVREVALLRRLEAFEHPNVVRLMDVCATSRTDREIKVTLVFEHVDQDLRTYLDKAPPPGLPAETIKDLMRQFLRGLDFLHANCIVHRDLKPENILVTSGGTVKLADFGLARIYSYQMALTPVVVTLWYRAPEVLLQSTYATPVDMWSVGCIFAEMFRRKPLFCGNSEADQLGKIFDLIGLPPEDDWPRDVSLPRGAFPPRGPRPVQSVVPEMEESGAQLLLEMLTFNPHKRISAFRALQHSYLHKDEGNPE
T3 sequence (P24385 whole entry partner, the tested form may be a part): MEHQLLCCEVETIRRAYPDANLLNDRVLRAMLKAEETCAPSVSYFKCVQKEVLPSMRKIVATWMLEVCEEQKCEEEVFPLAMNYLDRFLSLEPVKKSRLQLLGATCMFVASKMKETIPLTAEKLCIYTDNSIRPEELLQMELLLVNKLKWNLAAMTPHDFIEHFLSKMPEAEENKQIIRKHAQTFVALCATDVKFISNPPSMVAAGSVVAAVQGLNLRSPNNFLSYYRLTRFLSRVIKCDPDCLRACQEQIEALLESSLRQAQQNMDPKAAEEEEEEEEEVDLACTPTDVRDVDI

As usually defined, the solubility is how much of the substance goes into solution per volume. Regarding `COc1cc(O)c(/C=N/C(C)C)c2c1CC(C(=O)Nc1cc([C@H]3CC[C@@H](OC(=O)NC(C)(C)C)C3)[nH]n1)C2` (single isomer, unassigned) [Compound 283a, (1R,3S)-3-(3-((*)-5-hydroxy-4-((E)-(isopropylimino)methyl)-7-methoxy-2,3-dihydro-1H-indene-2-carboxamido)-1H-pyrazol-5-yl)cyclopentyl tert-butylcarbamate], the solubility at 2 h in data set [1] is 149 µM (≈ 78.3 µg/mL).
The same measure, in the same setting: the value for `COc1cc(O)c(/C=N/C(C)C)c2c1CC(C(=O)Nc1cc([C@H]3CC[C@@H](OC(=O)N(C)N(C)C)C3)n[nH]1)C2` (single isomer, unassigned) [Compound 284a, (1R,3S)-3-(5-((*)-5-hydroxy-4-((E)-(isopropylimino)methyl)-7-methoxy-2,3-dihydro-1H-indene-2-carboxamido)-1H-pyrazol-3-yl)cyclopentyl 1,2,2-trimethylhydrazine-1-carboxylate] was 253 µM (≈ 133 µg/mL); that for `COc1cc(O)c(/C=N/C(C)C)c(OCC(=O)Nc2cc([C@H]3CC[C@@H](OC(=O)NC(C)C)C3)[nH]n2)c1` [Compound 64a, (1R,3S)-3-(3-(2-(3-hydroxy-2-((E)-(isopropylimino)methyl)-5-methoxyphenoxy)acetamido)-1H-pyrazol-5-yl)cyclopentyl isopropylcarbamate] was 215 µM (≈ 108 µg/mL).
The same measure, in the same setting: for `CCC/N=C/c1c(O)cc(OC)cc1OCC(=O)Nc1cc([C@H]2CC[C@@H](OC(=O)NC(C)C)C2)[nH]n1` [Compound 64b, (1R,3S)-3-(3-(2-(3-hydroxy-5-methoxy-2-((E)-(propylimino)methyl)phenoxy)acetamido)-1H-pyrazol-5-yl)cyclopentyl isopropylcarbamate] the value was 79 µM (≈ 39.6 µg/mL); for `CC/N=C/c1c(O)cc(OC)cc1OCC(=O)Nc1cc([C@H]2CC[C@@H](OC(=O)NC(C)C)C2)[nH]n1` [Compound 64c, (1R,3S)-3-(3-(2-(2-((E)-(ethylimino)methyl)-3-hydroxy-5-methoxyphenoxy)acetamido)-1H-pyrazol-5-yl)cyclopentyl isopropylcarbamate], 246 µM (≈ 120 µg/mL); for `CCCC/N=C/c1c(O)cc(OC)cc1OCC(=O)Nc1cc([C@H]2CC[C@@H](OC(=O)NC(C)C)C2)[nH]n1` [Compound 64d, (1R,3S)-3-(3-(2-(2-((E)-(butylimino)methyl)-3-hydroxy-5-methoxyphenoxy)acetamido)-1H-pyrazol-5-yl)cyclopentyl isopropylcarbamate], 67 µM (≈ 34.5 µg/mL).
On the same count and under the same terms, for `CCOC(=O)C/N=C/c1c(O)cc(OC)cc1OCC(=O)Nc1cc([C@H]2CC[C@@H](OC(=O)NC(C)C)C2)[nH]n1` [Compound 64p, Ethyl 2-(((E)-2-hydroxy-6-(2-((5-((1S,3R)-3-((isopropylcarbamoyl)oxy)cyclopentyl)-1H-pyrazol-3-yl)amino)-2-oxoethoxy)-4-methoxybenzylidene)amino)acetate] the value was 4.8 µM (≈ 2.62 µg/mL); for `COc1cc(O)c(/C=N/CCS(=O)(=O)O)c(OCC(=O)Nc2cc([C@H]3CC[C@@H](OC(=O)NC(C)C)C3)[nH]n2)c1` [Compound 64q, 2-(((E)-2-hydroxy-6-(2-((5-((1S,3R)-3-((isopropylcarbamoyl)oxy)cyclopentyl)-1H-pyrazol-3-yl)amino)-2-oxoethoxy)-4-methoxybenzylidene)amino)ethane-1-sulfonic acid], 243 µM (≈ 138 µg/mL).
For the compound `CC(C)NC(=O)O[C@@H]1CC[C@H](c2cc(NC(=O)c3ccnc(Oc4cccc(O)c4C=O)c3)n[nH]2)C1` [Compound 69, (1R,3S)-3-{5-[2-(2-formyl-3-hydroxyphenoxy)pyridine-4-amido]-2H-pyrazol-3-yl}cyclopentyl N-isopropylcarbamate; trifluoroacetic acid], the IC50 in data set [2] worked out at 79 nM; in data set [3] (NanoBRET-CDK2/E1 IC50, NanoBRET TE intracellular kinase assay), 1.92 nM; in data set [4] it was 1.95 µM; in data set [5], 730 nM. In addition, the “Observed mass value of the covalent complex between compound and CDK2 protein” value (shortened to “Observed mass value”) in data set [6] came out at 34574 Da. Besides, in data set [6] (pCDK2-CCNE1 1 μM, compound 1.5 μM, trifluoroacetic acid), the “Covalent complex formation with CDK2 protein (intact mass spectra after sodium borohydride reduction)” value is recorded as “formed a covalent complex with CDK2 protein; also recorded: resulted in covalent complex formation”. For the same compound, the “Binding pocket by competition: complex formation in presence of molar excess PF-06873600” value in data set [6] (pCDK2-CCNE1 1 μM, compound 1.5 μM, competitor PF-06873600 20 μM) is recorded as “bound to the same binding pocket of CDK2 as the competitor molecule PF-06873600”.
As to `CC1(NC(=O)O[C@@H]2CC[C@H](c3cc(NC(=O)COc4cccc(O)c4C=O)n[nH]3)C2)CC1` [Compound 82, (1R,3S)-3-{5-[2-(2-formyl-3-hydroxyphenoxy)acetamido]-2H-pyrazol-3-yl}cyclopentyl N-(1-methylcyclopropyl)carbamate; trifluoroacetic acid], the IC50 in data set [2] was determined as 11.3 nM; in data set [3] (setting [7]), 3.32 nM; in data set [4], 4.42 µM; in data set [5] (setting [8]) it was 43.2 nM. Moreover, the “Observed mass value” value in data set [6] is listed as 34523 Da. In addition, the “Covalent complex formation with CDK2 protein (intact mass spectra after sodium borohydride reduction)” value in data set [6] (setting [9]) was “resulted in covalent complex formation”.
On to `CC(C)/N=C/c1c(O)cccc1OCC(=O)Nc1cc([C@H]2CC[C@@H](OC(=O)NC3(C)CC3)C2)[nH]n1` [Compound 82a, (1R,3S)-3-(3-(2-(3-hydroxy-2-((E)-(isopropylimino)methyl)phenoxy)acetamido)-1H-pyrazol-5-yl)cyclopentyl (1-methylcyclopropyl)carbamate], for which, in data set [1], the solubility at 2 h was found to be 34 µM (≈ 16.4 µg/mL).
`COc1cc(OC)c(C=O)c(OCC(=O)Nc2cc([C@H]3CC[C@@H](OC(=O)NC(C)C)C3)[nH]n2)c1` [Compound 103, (1R,3S)-3-{5-[2-(2-formyl-3,5-dimethoxyphenoxy)acetamido]-2H-pyrazol-3-yl}cyclopentyl N-isopropylcarbamate]: the IC50 in data set [2] came out at 5.66 nM; in data set [3] (setting [7]), 1.43 nM; in data set [4] it was 3.79 µM; in data set [5] (setting [8]) it was 31.7 nM. Further, the “Observed mass value” value in data set [6] is on record as 34554 Da. In addition, the “Covalent complex formation with CDK2 protein (intact mass spectra after sodium borohydride reduction)” value in data set [6] (setting [9]) was “resulted in covalent complex formation”.
As to `COc1cc(O)c(/C=N/C(C)C)c(OCC(=O)Nc2cc([C@H]3CC[C@@H](OC(=O)NC(C)(C)C)C3)[nH]n2)c1` [Compound 128a, (1R,3S)-3-(3-(2-(3-hydroxy-2-((E)-(isopropylimino)methyl)-5-methoxyphenoxy)acetamido)-1H-pyrazol-5-yl)cyclopentyl tert-butylcarbamate], in data set [1], the solubility at 2 h was 191 µM (≈ 98.5 µg/mL).
Take `Cc1cc(O)c(/C=N/C(C)C)c(OCC(=O)Nc2cc([C@H]3CC[C@@H](OC(=O)NC4(C)CC4)C3)[nH]n2)c1` [Compound 145a, (1R,3S)-3-(3-(2-(3-hydroxy-2-((E)-(isopropylimino)methyl)-5-methylphenoxy)acetamido)-1H-pyrazol-5-yl)cyclopentyl (1-methylcyclopropyl)carbamate]: the solubility at 2 h in data set [1] worked out at 68 µM (≈ 33.8 µg/mL).

Source of the values: patent US20250289789A1, “REVERSIBLE LYSINE COVALENT MODIFIERS OF CDK2 AND USES THEREOF” (Terremoto Biosciences, Inc., priority 2023, published 2025).
